Converted amounts (≈) assume the structure as drawn.
Key:
[1] = Displacement of Biocillin FL from Streptococcus pneumoniae 1077 PBP3
[2] = test system: Streptococcus pneumoniae; experiment: Antimicrobial activity against Streptococcus pneumoniae 1564 by CLSI method; type: functional
[3] = Displacement of Biocillin FL from Streptococcus pneumoniae 1076 PBP3
[4] = Displacement of Biocillin FL from Streptococcus pneumoniae 3665 PBP1B
[5] = target: T1, Penicillin-binding protein 1A (Streptococcus pneumoniae serotype 4 (strain ATCC BAA-334 / TIGR4), UniProt Q04707); experiment: Displacement of Biocillin FL from Streptococcus pneumoniae 3413 PBP1A
T1 sequence (Q04707 whole entry): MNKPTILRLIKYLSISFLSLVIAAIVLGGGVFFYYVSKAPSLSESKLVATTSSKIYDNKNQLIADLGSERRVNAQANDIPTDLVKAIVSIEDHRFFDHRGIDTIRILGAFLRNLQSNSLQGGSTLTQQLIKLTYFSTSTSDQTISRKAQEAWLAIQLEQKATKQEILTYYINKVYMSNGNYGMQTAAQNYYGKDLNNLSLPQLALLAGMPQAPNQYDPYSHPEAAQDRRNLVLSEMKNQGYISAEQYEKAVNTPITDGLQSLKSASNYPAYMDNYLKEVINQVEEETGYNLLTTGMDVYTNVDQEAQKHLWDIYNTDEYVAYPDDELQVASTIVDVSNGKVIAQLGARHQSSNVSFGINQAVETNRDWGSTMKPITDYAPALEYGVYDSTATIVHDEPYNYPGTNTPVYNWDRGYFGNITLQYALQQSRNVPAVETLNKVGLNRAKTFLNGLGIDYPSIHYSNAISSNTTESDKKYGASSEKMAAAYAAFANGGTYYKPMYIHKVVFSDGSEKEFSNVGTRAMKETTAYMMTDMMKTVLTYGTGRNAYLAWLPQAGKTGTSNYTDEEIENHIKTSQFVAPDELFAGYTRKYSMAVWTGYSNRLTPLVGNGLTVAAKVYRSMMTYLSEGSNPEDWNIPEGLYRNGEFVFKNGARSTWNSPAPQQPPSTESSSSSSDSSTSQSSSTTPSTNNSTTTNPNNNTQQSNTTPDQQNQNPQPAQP

[6] = Displacement of Biocillin FL from Streptococcus pneumoniae 2527 PBP3
[7] = target: T2, Penicillin-binding protein 2x (Streptococcus pneumoniae serotype 4 (strain ATCC BAA-334 / TIGR4), UniProt P14677); experiment: Displacement of Biocillin FL from Streptococcus pneumoniae 2527 PBP2X
T2 sequence (P14677 whole entry): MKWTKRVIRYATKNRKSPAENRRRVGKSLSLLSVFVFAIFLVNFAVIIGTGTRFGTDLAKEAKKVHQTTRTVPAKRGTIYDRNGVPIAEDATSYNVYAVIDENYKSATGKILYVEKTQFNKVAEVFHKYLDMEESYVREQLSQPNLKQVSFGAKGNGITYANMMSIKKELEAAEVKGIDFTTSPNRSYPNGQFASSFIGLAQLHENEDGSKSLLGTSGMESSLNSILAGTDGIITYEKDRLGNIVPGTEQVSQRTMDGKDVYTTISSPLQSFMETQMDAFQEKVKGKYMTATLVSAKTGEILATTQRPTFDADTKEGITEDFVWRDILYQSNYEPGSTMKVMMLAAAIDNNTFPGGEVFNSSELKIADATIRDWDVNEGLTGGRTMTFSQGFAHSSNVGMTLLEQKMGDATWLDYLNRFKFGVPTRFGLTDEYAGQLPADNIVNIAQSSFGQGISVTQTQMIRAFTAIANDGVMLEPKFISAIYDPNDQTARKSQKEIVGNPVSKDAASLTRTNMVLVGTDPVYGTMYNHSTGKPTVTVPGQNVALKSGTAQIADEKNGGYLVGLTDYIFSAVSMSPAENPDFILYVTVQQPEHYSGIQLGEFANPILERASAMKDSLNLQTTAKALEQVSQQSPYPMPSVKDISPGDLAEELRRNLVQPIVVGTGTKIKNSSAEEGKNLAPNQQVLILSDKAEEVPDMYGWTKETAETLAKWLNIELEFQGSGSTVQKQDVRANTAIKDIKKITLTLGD

[8] = target: T3, Penicillin-binding protein 2B (Streptococcus pneumoniae serotype 4 (strain ATCC BAA-334 / TIGR4), UniProt P0A3M5); experiment: Displacement of Biocillin FL from Streptococcus pneumoniae 2527 PBP2B
T3 sequence (P0A3M5 whole entry): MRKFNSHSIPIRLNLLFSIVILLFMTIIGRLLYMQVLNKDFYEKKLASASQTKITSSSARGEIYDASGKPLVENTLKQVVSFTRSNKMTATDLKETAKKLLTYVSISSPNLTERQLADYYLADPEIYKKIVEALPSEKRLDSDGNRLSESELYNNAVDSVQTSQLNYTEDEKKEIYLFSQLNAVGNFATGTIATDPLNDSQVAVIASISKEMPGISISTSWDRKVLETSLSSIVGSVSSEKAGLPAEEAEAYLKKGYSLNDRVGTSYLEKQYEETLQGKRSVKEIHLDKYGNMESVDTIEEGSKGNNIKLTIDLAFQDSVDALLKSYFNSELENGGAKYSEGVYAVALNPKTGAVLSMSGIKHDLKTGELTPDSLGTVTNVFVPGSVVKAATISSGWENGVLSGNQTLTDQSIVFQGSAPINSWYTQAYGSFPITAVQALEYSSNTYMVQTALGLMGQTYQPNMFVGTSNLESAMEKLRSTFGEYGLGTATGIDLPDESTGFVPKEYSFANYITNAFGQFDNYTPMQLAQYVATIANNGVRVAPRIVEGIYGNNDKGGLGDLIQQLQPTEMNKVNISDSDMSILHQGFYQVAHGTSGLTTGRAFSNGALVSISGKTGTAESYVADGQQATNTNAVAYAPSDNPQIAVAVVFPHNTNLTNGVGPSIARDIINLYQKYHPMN

[9] = test system: Streptococcus pneumoniae; experiment: Antimicrobial activity against Streptococcus pneumoniae 2688 by CLSI method; type: functional
[10] = Displacement of Biocillin FL from Streptococcus pneumoniae 3676 PBP3
[11] = Displacement of Biocillin FL from Streptococcus pneumoniae 3665 PBP2A
[12] = target: T3, Penicillin-binding protein 2B; experiment: Displacement of Biocillin FL from Streptococcus pneumoniae 3009 PBP2B
[13] = test system: Streptococcus pneumoniae; experiment: Antimicrobial activity against penicillin-intermediate Streptococcus pneumoniae 3665 by CLSI method; type: functional
[14] = Displacement of Biocillin FL from Streptococcus pneumoniae 1076 PBP1B
[15] = Displacement of Biocillin FL from Streptococcus pneumoniae 3676 PBP1B
[16] = Displacement of Biocillin FL from Streptococcus pneumoniae 24 PBP3
[17] = target: T2, Penicillin-binding protein 2x; experiment: Displacement of Biocillin FL from Streptococcus pneumoniae 3009 PBP2X
[18] = Displacement of Biocillin FL from Streptococcus pneumoniae 3676 PBP2A
[19] = Displacement of Biocillin FL from Streptococcus pneumoniae 1077 PBP1B
[20] = test system: Streptococcus pneumoniae; experiment: Antimicrobial activity against penicillin-sensitive Streptococcus pneumoniae 1077 by CLSI method; type: functional
[21] = target: T2, Penicillin-binding protein 2x; experiment: Displacement of Biocillin FL from Streptococcus pneumoniae 3413 PBP2X

SMILES	IC50 [1] [µg/mL]	MIC [2] [µg/mL]	IC50 [3] [µg/mL]	IC50 [4] [µg/mL]	IC50 [5] [nM]	IC50 [6] [µg/mL]	IC50 [7] [nM]	IC50 [8] [nM]	MIC [9] [µg/mL]	IC50 [10] [µg/mL]	IC50 [11] [µg/mL]	IC50 [12] [nM]	MIC [13] [µg/mL]	IC50 [14] [µg/mL]	IC50 [15] [µg/mL]	IC50 [16] [µg/mL]	IC50 [17] [nM]	IC50 [18] [µg/mL]	IC50 [19] [µg/mL]	MIC [20] [µg/mL]	further results
C[C@@H](O)[C@H]1C(=O)N2C(C(=O)O)=C(SCCNC=N)C[C@H]12 [IMIPENEM ANHYDROUS]	0.219 (≈ 0.732 µM)	0.125 (≈ 0.418 µM)	0.032 (≈ 0.107 µM)	0.077 (≈ 0.257 µM)	2070	0.034 (≈ 0.114 µM)	60.1	207	0.25 (≈ 0.835 µM)	0.188 (≈ 0.628 µM)	0.233 (≈ 0.778 µM)	154	0.03 (≈ 0.1 µM)	0.031 (≈ 0.104 µM)	0.182 (≈ 0.608 µM)	0.2 (≈ 0.668 µM)	334	0.115 (≈ 0.384 µM)	0.106 (≈ 0.354 µM)	0.008 (≈ 0.0267 µM)	IC50 [21]: 1430 nM
CO/N=C(\C(=O)N[C@@H]1C(=O)N2C(C(=O)O)=C(COC(N)=O)CS[C@H]12)c1ccco1 [CEFUROXIME]	0.071 (≈ 0.167 µM)	8 (≈ 18.9 µM)	0.021 (≈ 0.0495 µM)	0.016 (≈ 0.0377 µM)	2.36	0.038 (≈ 0.0895 µM)	7.07	6230	4 (≈ 9.43 µM)	0.048 (≈ 0.113 µM)	0.009 (≈ 0.0212 µM)	3900	0.125 (≈ 0.295 µM)	0.008 (≈ 0.0189 µM)	0.038 (≈ 0.0895 µM)	0.002 (≈ 0.00471 µM)	0.0943	0.011 (≈ 0.0259 µM)	0.008 (≈ 0.0189 µM)	0.03 (≈ 0.0707 µM)	IC50 [21]: 9.43 nM
C[C@@H](O)[C@H]1C(=O)N2C(C(=O)O)=C([C@H]3CCCO3)S[C@H]12 [FAROPENEM]	0.006 (≈ 0.021 µM)	0.03 (≈ 0.105 µM)	0.015 (≈ 0.0526 µM)	0.012 (≈ 0.0421 µM)	56.1	0.007 (≈ 0.0245 µM)	116	35	0.06 (≈ 0.21 µM)	0.009 (≈ 0.0315 µM)	0.015 (≈ 0.0526 µM)	24.5	0.125 (≈ 0.438 µM)	0.002 (≈ 0.00701 µM)	0.005 (≈ 0.0175 µM)	0.015 (≈ 0.0526 µM)	214	0.053 (≈ 0.186 µM)	0.005 (≈ 0.0175 µM)	0.03 (≈ 0.105 µM)	IC50 [21]: 1520 nM
CC1(C)S[C@@H]2[C@H](NC(=O)Cc3ccccc3)C(=O)N2[C@H]1C(=O)O [PENICILLIN G]	0.01 (≈ 0.0299 µM)	16 (≈ 47.8 µM)	0.016 (≈ 0.0478 µM)	0.029 (≈ 0.0867 µM)	59.8	0.014 (≈ 0.0419 µM)	26.9	287	8 (≈ 23.9 µM)	0.007 (≈ 0.0209 µM)	0.016 (≈ 0.0478 µM)	20.9	0.125 (≈ 0.374 µM)	0.007 (≈ 0.0209 µM)	0.021 (≈ 0.0628 µM)	0.004 (≈ 0.012 µM)	32.9	0.013 (≈ 0.0389 µM)	0.005 (≈ 0.015 µM)	0.03 (≈ 0.0897 µM)	IC50 [21]: 1920 nM
CC1(C)S[C@@H]2[C@H](NC(=O)[C@H](N)c3ccc(O)cc3)C(=O)N2[C@H]1C(=O)O [AMOXICILLIN]	0.022 (≈ 0.0602 µM)	4 (≈ 10.9 µM)	0.051 (≈ 0.14 µM)	0.079 (≈ 0.216 µM)	339	0.022 (≈ 0.0602 µM)	10.9	90.3	16 (≈ 43.8 µM)	0.019 (≈ 0.052 µM)	0.05 (≈ 0.137 µM)	137	0.125 (≈ 0.342 µM)	0.068 (≈ 0.186 µM)	0.116 (≈ 0.317 µM)	0.049 (≈ 0.134 µM)	21.9	0.066 (≈ 0.181 µM)	0.006 (≈ 0.0164 µM)	0.016 (≈ 0.0438 µM)	IC50 [21]: 170 nM
